Reference: patent US20140296174A1, “SILK-BASED MULTIFUNCTIONAL BIOMEDICAL PLATFORM” (TUFTS UNIVERSITY, priority 2011, published 2014)

Assays:
[1] = silk microspheres, depending on processing pH; cited from earlier work
[2] = Doxorubicin storage stability in silk films/MPAs versus solution (fluorescence); format: physicochemical; details: 3 weeks at −20° C. and 60° C.; excitation 430, emission 550
Description: Silk films for degradation and stability studies were prepared by casting of 6% (w/v) silk solution containing 1.0 mg/mL doxorubicin on a patterned mold. After drying at ambient conditions for 48 hours the samples were removed and vapor annealed for 24 hours as previously described (Jin et al., 2005).
After 3 weeks, the silk films were degraded with 10 mg/mL proteinase k for 6 hours, and doxorubicin concentration for all samples was determined by comparing fluorescence to a standard curve of known concentrations (excitation=430, emission=550).
The silk DxR-MPA was evaluated at different time points for optical performance and drug content eluted by measuring absorbance at 495 nm and comparing measured values to a standard curve (FIGS. 11A & 33). […] The doxorubicin-loaded silk-MPAs were stored at −20° C.

[3] = Binding of doxorubicin to silk carrier; format: physicochemical; details: typically
From the text: In addition to having properties which make silk well suited to drug delivery in general, silk is uniquely suited to deliver doxorubicin, as we have observed that doxorubicin interacts strongly with the silk. […] The interaction between the silk and the doxorubicin also results in a large fraction (typically more than 50%) of the total doxorubicin dose is bound to the carrier. In some embodiments, therefore, the carrier may be proteolytically degraded to enhance release the bound doxorubicin. This provide an opportunity to design protease-triggered drug release systems. […] Degradation-mediated drug release from silk biomaterials can be used to design systems that provide drug locally proportionately to disease progression: aggressive disease/increased proteolysis would degrade the silk carrier more rapidly, releasing larger doses of drug than in healthy tissue.

SMILES | fraction released [1] | doxorubicin fluorescence after storage [2] | fraction of the total doxorubicin dose bound to the carrier [3]
CN(C)c1ccc(C(=C2C=CC(=[N+](C)C)C=C2)c2ccc(N(C)C)cc2)cc1 [crystal violet] | 25-60% | – | –
COc1cccc2c1C(=O)c1c(O)c3c(c(O)c1C2=O)C[C@@](O)(C(=O)CO)C[C@@H]3O[C@H]1C[C@H](N)[C@H](O)[C@H](C)O1 [doxorubicin] | – | decreases | more than 50%
